The values that follow come from patent publication US12187705B2, “Heteroaryl-triazole and heteroaryl-tetrazole compounds as pesticides” (Bayer Aktiengesellschaft, priority 2018, dated 2025).

What all share (type): in vivo
Experiment [1] concerns Nilaparvata lugens. Nature of the experiment: Nilaparvata lugens spray test. The note with it: Nilaparvata lugens, in Oryza sativa, 96 h. In a few lines: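 Rice plants sprayed with compound diluted in water containing 1000 ppm emulsifier, then infested with brown planthopper. Mortality (%) scored after 4 days, 100% meaning all insects killed.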
Experiment [2] has as its system Anopheles funestus strain FUMOZ-R. Nature of the experiment: Anopheles funestus test (ANPHFU surface treatment & contact assay). The note with it: 24 hours after contact, read-out: efficacy (mortality). In a few lines: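 Compound dissolved in acetone (2 mg/ml) with 2000 ppm rapeseed oil methyl ester, dried onto glazed tile; adult Anopheles funestus FUMOZ-R exposed for 30 minutes. Percent mortality scored 24 hours after contact.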

Experiment [3] concerns Phaedon cochleariae. Kind of experiment: Phaedon cochleariae spray test. The note with it: foliar, 168 h, Chinese cabbage leaf disks, after 7 days. How it is done:
Phaedon cochleariae—Spray Test
To produce a suitable preparation of active compound, 1 part by weight of active compound is mixed with the stated amount of solvents and is diluted with water, containing an emulsifier concentration of 1000 ppm, to the desired concentration. Further test concentrations are prepared by dilution with emulsifier containing water.
Chinese cabbage (Brassica pekinensis) leaf disks are sprayed with a preparation of the active ingredient of the desired concentration. Once dry, the leaf disks are infested with mustard beetle larvae (Phaedon cochleariae).
After 7 days mortality in % is determined. 100% means all beetle larvae have been killed and 0% means none of the beetle larvae have been killed.

The test system of experiment [4] is Nezara viridula. Nature of the experiment: Nezara viridula spray test. Conditions: in Hordeum vulgare, 96 h. In a few lines: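 Barley plants infested with stink bug larvae were sprayed with compound diluted in water containing 1000 ppm emulsifier. Mortality (%) was scored after 4 days, 100% meaning all bugs killed.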
For experiment [5], the system named is Ctenocephalides felis. Nature of the experiment: Ctenocephalides felis oral test. Conditions: Ctenocephalides felis, in Bos taurus, po, 48 h. In a few lines:
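About 20 adult unfed fleas fed through parafilm on cattle blood containing compound (DMSO concentrate diluted in blood); blood held at 37° C., fleas at room temperature. Mortality in % scored after 2 days (100% = all killed).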

Experiment [6] deals with Ctenocephalides felis. Nature of the experiment: Ctenocephalides felis in-vitro contact test adult cat flea. Conditions: 5 μg/cm^2 (=500 g/ha), after 48 hours; for pest or weed control at 5 µg/cm2, 5 µg/cm2: Ctenocephalides felis, read-out: efficacy (fleas dead or moribund). In a few lines:
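Compound in acetone was coated on glass tube walls, giving 5 μg/cm^2 at 900 ppm. 5-10 adult cat fleas were held at room temperature for 48 h, then heat-challenged at 45-50° C. Fleas immotile or uncoordinated were scored dead/moribund, expressed as % efficacy.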

Experiment [7] concerns Aedes aegypti strain MONHEIM. Nature of the experiment: Aedes aegypti test (AEDSAE surface treatment & contact assay). The note with it: 24 hours after contact, read-out: efficacy (mortality); for mortality at 4 mg/m2: surface concentration 4 mg/m^2, 30 minutes exposure; for mortality at 20 mg/m2: surface concentration 20 mg/m^2, 30 minutes exposure. In a few lines: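 Compound dissolved in acetone (2 mg/ml) with 2000 ppm rapeseed oil methyl ester and dried onto a glazed tile. Adult mosquitoes held on the treated surface for 30 minutes exposure. Percent mortality scored 24 hours after contact.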

Experiment [8] has as its system Myzus persicae. Nature of the experiment: Myzus persicae oral test. The note with it: 120 h. In a few lines: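 Feeding test: compound diluted in water was combined with IPL41 insect medium (33%+15% sugar) under a parafilm seal. A mixed population of green peach aphids fed through the membrane. Mortality (%) was scored after 5 days.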
Experiment [9] deals with Culex quinquefasciatus strain P00. Nature of the experiment: Culex quinquefasciatus test (CULXFA surface treatment & contact assay). Conditions: 24 hours after contact, read-out: efficacy (mortality); for mortality at 20 mg/m2: surface concentration 20 mg/m^2, 30 minutes exposure; for mortality at 4 mg/m2: surface concentration 4 mg/m^2, 30 minutes exposure. A digest of the protocol:
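Compound dissolved in acetone (2 mg/ml) with 2000 ppm rapeseed oil methyl ester, applied to glazed tile and dried. Adult strain P00 mosquitoes exposed to the surface for 30 minutes. Percent mortality scored 24 hours after contact.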

Experiment [10] deals with Boophilus microplus. Nature of the experiment: Boophilus microplus injection test. Conditions: 20 μg/animal, egg deposition after 7 days; for pest or weed control at 0.02 mg: Rhipicephalus microplus, 168 h, read-out: efficacy (infertile eggs). A digest of the protocol:
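Engorged adult female ticks, five per dose, received 1 μl of compound in DMSO injected into the abdomen and were kept in a climate chamber. Fertile egg deposition was checked after 7 days, with eggs of unclear fertility held until hatching at about 42 days. Efficacy 100% = all eggs infertile, 0% = all fertile.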

Experiment [11] has as its system Rhipicephalus sanguineus. Kind of experiment: Rhipicephalus sanguineus in-vitro contact test with adult brown dog ticks. Conditions: Rhipicephalus sanguineus; 5 μg/cm^2 (=500 g/ha), after 48 hours; read-out: efficacy (ticks dead or moribund). How it is done: Rhipicephalus sanguineus—In-Vitro Contact Test with Adult Brown Dog Ticks
9 mg compound is solved in 1 ml acetone and diluted with acetone to the desired concentration. 250 μl of the test solution is filled in 25 ml glass test tubes and homogeneously distributed on the inner walls by rotation and tilting on a shaking device (2 h at 30 rpm). With a compound concentration of 900 ppm, an inner surface of 44.7 cm^2 and a homogeneous distribution, a dose of 5 μg/cm^2 is achieved.
After the solvent has evaporated, each test tube is filled with 5-10 adult brown dog ticks (Rhipicephalus sanguineus), closed with a perforated lid and incubated in a lying position at room temperature and relative humidity. After 48 hours efficacy is determined. The ticks are patted on the ground of the tubes and are incubated on a heating plate at 45-50° C. for at most 5 minutes. Immotile or uncoordinated moving ticks, which are not able to escape the heat by climbing upwards, are marked as dead or moribund.
An efficacy of 100% means all ticks are dead or moribund; 0% means no ticks are dead or moribund.

The subject of experiment [12] is Diabrotica balteata. Kind of experiment: Diabrotica balteata spray test. The note with it: 160 μg/well, wheat seeds, after 7 days. In a few lines:
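Wheat seeds germinated 1 day on agar were sprayed with compound diluted in water with 1000 ppm emulsifier, then infested with 10-20 Diabrotica balteata larvae. Efficacy in % scored after 7 days: 100% = seedlings grown as untreated, uninfected control; 0% = no seedlings grown.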

Experiment [13] deals with cattle ticks (Boophilus microplus) strane Parhurst, SP-resistant. Nature of the experiment: Boophilus microplus dip test. The note with it: 100 ppm, egg deposition after 7 days. As for the experimental part: Boophilus microplus—Dip Test
Test animal: cattle ticks (Boophilus microplus) strane Parhurst, SP-resistant
Solvent: dimethyl sulfoxide
To produce a suitable preparation of active compound, 10 mg of active compound are dissolved in 0.5 ml solvent, and the concentrate is diluted with water to the desired concentration.
This compound solution is pipetted into tubes. 8-10 engorged, adult, female cattle ticks (Boophilus microplus) are placed in perforated tubes. These tubes are immersed in the aqueous compound solution until the ticks are completely moistened. After the liquid has drained off, the ticks are transferred to a filter paper in a plastic tray and stored in a climate chamber.
After 7 days egg deposition of fertile eggs is monitored. Eggs where fertility is not visible are stored in a climate chamber till hatching after about 42 days. An efficacy of 100% means all eggs are infertile; 0% means all eggs are fertile.

Experiment [14] relates to Spodoptera frugiperda. Nature of the experiment: Spodoptera frugiperda spray test. Conditions: in Zea mays, 168 h. A digest of the protocol: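 Maize leaf sections sprayed with compound diluted in water with 1000 ppm emulsifier, then infested with larvae once dry. Mortality (%) scored after 7 days; 100% = all caterpillars killed.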
Experiment [15] concerns Myzus persicae. Kind of experiment: Myzus persicae spray test. Conditions: in Brassica rapa, foliar, 120 h. In a few lines: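 Chinese cabbage leaf disks infested with all aphid instars were sprayed with compound diluted in water containing emulsifier (1000 ppm). Mortality (%) was scored after 5 days, 100% meaning all aphids killed.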

As for `CC(c1ncnn1-c1ncccn1)N(CC1CC1)C(=O)c1cccc(S(C)(=O)=O)c1` (stereo not drawn) [Example I-001], the mortality at 500 g/ha in [1], in [3] and in [4] was 100% each time. Besides, the mortality (usually the share of the test organisms that died) at 4 mg/m2 in experiment [2] (surface concentration 4 mg/m^2, 30 minutes exposure) was 85 to 100%; in experiment [7], 80 to 100%. In addition, the mortality at 20 mg/m2 in experiment [2] (surface concentration 20 mg/m^2, 30 minutes exposure) was 85 to 100%; in experiment [7] it was 90 to 100%; in experiment [9], 80 to 100%. In [5], the mortality at 100 ppm came out at 100%. Besides, the values for the pest or weed control at 5 µg/cm2, 5 µg/cm2 in experiment [6] and in [11] were 80% and 100%, respectively. The compound also had a mortality at 20 ppm in experiment [8] of 100%. In addition, in experiment [10], the pest or weed control at 0.02 mg is 100%.

For `CC(NC(=O)c1cc(Cl)cc(S(C)(=O)=O)c1)c1ncnn1-c1ccc(C#N)cn1` (stereo not drawn) [Example I-035], in [12], the “efficacy (seedlings grown)” value came out at 100%. For the same compound, the “efficacy (infertile eggs)” value in experiment [13] and in [10] was 100% in each case. Further, the “efficacy (fleas dead or moribund)” value in experiment [6] came to 100%.

With `C[C@@H](NC(=O)c1cc(Cl)cc(S(C)(=O)=O)c1)c1ncnn1-c1ncc(Cl)cn1` [Example I-038], the mortality at 500 g/ha in [4] and in [14] was 100% throughout. The compound also displayed a mortality at 100 ppm in experiment [5] of 100%. For the same compound, the “efficacy (infertile eggs)” value in experiment [13] came out at 100%. Further, the pest or weed control at 5 µg/cm2, 5 µg/cm2 in experiment [6] was determined as 100%. For the same compound, the mortality at 4 mg/m2 in [7] and in experiment [9] was 80 to 100% throughout. For the same compound, the values for the mortality at 20 mg/m2 in experiment [7] and in experiment [9] were 90 to 100% and 80 to 100%, respectively. In experiment [8], the mortality at 4 ppm worked out at 100%. Moreover, the pest or weed control at 0.02 mg in experiment [10] was determined as 100%.

With `CCS(=O)(=O)c1cc(Cl)cc(C(=O)N[C@@H](C)c2ncnn2-c2ncccn2)c1` [Example I-044, 3-chloro-5-(ethylsulfonyl)-N-{(1S)-1-[1-(pyrimidin-2-yl)-1H-1,2,4-triazol-5-yl]ethyl}benzamide], the mortality at 500 g/ha in experiment [1] came out at 100%; in experiment [4], 100%; in [14], 83%; in experiment [15], 100%. Also, the pest or weed control at 160 µg/disc, 160 µg/well in experiment [12] (Diabrotica balteata, 168 h, read-out: efficacy (seedlings grown)) came out at 100%. The mortality at 100 ppm in [5] stood at 100%. Moreover, the “efficacy (infertile eggs)” value in experiment [13] was 100%. Moreover, the pest or weed control at 5 µg/cm2, 5 µg/cm2 in experiment [6] was found to be 100%. Also, the mortality at 4 mg/m2 in experiment [7] and in experiment [9] was 80 to 100% each time. The values for the mortality at 20 mg/m2 in experiment [7] and in experiment [9] were 90 to 100% and 80 to 100%, respectively. The compound also yielded a mortality at 4 ppm in experiment [8] of 100%. Further, the pest or weed control at 0.02 mg in experiment [10] is 100%.

Consider `CC(C)Sc1cc(Cl)cc(C(=O)N[C@@H](C)c2ncnn2-c2ncccn2)c1` [Example I-046, 3-chloro-5-(isopropylsulfanyl)-N-{(1S)-1-[1-(pyrimidin-2-yl)-1H-1,2,4-triazol-5-yl]ethyl}benzamide], for which the mortality at 500 g/ha in experiment [1] is 90%; in [4], 100%; in experiment [14] it was 100%; in experiment [15], 100%. This compound also registered a mortality at 100 ppm in experiment [5] of 100%. In addition, the “efficacy (infertile eggs)” value in experiment [13] came out at 100%. The pest or weed control at 5 µg/cm2, 5 µg/cm2 in experiment [6] turned out to be 100%. Moreover, the mortality at 20 mg/m2 in experiment [7] lay within 90 to 100%; in [9] it was 80 to 100%. In addition, in [8], the mortality at 4 ppm worked out at 100%. Moreover, the pest or weed control at 0.02 mg in [10] amounted to 100%.

Consider `CC(NC(=O)c1cc(Cl)cc(C2CC2)c1)c1ncnn1-c1ncccn1` (stereo not drawn) [Example I-050], for which the “efficacy (seedlings grown)” value in experiment [12] is listed as 80%. Also, the “efficacy (infertile eggs)” value is 90% in experiment [13] and 100% in experiment [10]. In experiment [6], the “efficacy (fleas dead or moribund)” value was determined as 100%.
